Values of other authors as cited in patent US20160303150A1, “DEUTERATED TREHALOSE FORMULATIONS AND USES THEREOF” (BioBlast Pharma Ltd., priority 2015, published 2016).

Assays:
[1] = test system: transgenic OPMD mice
[2] = in vivo
[3] = test system: transgenic HD mice
[4] = 0.2%-5% trehalose in drinking water, 5-9 weeks, transgenic HD mice

OC[C@H]1O[C@H](O[C@H]2O[C@H](CO)[C@@H](O)[C@H](O)[C@H]2O)[C@H](O)[C@@H](O)[C@@H]1O [trehalose, α-G-glucopyranosyl α-D-glucopyranoside]
oral amount causing diarrhea and bloating (oral): 40-50 gram per day
safety findings in healthy volunteers (oral doses ranging from 10 to 60 gr, healthy volunteers): no other safety issues were reported
oral amount frequently causing diarrhea, bloating and discomfort (oral, humans): higher than 50 g a day
aggregation formation and toxicity of mutant PABPN1 in myocytes ([1]; 2% trehalose in drinking water, 4-6 months): significantly reduce aggregation formation and toxicity of the mutant PABPN1 in myocytes
OPMD onset, disease phenotype, aggregate formation and cell death ([1]; oral trehalose): delay the OPMD onset, attenuate the disease phenotype, decrease polyalanine protein aggregate formation and decrease cell death
fraction of administered trehalose not absorbed into the blood stream [2]: over 99.5%
HD-related motor symptoms [3, 4]: improvement of HD-related motor symptoms
formation of intra-nuclear huntingtin aggregates in the brain and liver [3, 4]: inhibition of formation of intra-nuclear huntingtin aggregates in the brain and liver
survival ([3]; oral administration, HD mouse model): extend survival
